{
  "source": "patent US20230106535A1",
  "about": "“TECHNIQUES FOR DETERMINING CALCIMIMETIC DRUG ACTIVITY” (Fresenius Medical Care Holdings, Inc., priority 2021, published 2023)",
  "origin": "cited, not measured here",
  "key": {"[1]": {"test_system": "PTH", "conditions": "n=343, Source E"}, "[2]": {"conditions": "healthy subjects; plasma concentration declines tri-exponentially"}, "[3]": {"test_system": "corrected serum calcium", "conditions": "clinical studies"}, "[4]": {"test_system": "iPTH, serum ionized Ca, phosphate"}, "[5]": {"assay": "not given", "remark": "listed apart in the source"}, "[6]": {"conditions": "long term studies, within 12 weeks"}},
  "data": [
    {"smiles": "C[C@@H](NCCCc1cccc(C(F)(F)F)c1)c1cccc2ccccc12", "note": "[cinacalcet]", "values": [
      {"measurement": "patients with PTH reduction >30% from baseline, clinical results", "setting": "[1]", "value": 57.7, "unit": "%"},
      {"measurement": "patients with PTH reduction >50% from baseline, clinical results", "setting": "[1]", "value": 40.2, "unit": "%"}
    ]},
    {"smiles": "CC(=O)N[C@H](CSSC[C@H](N)C(=O)O)C(=O)N[C@H](C)C(=O)N[C@H](CCCNC(=N)N)C(=O)N[C@H](CCCNC(=N)N)C(=O)N[C@H](CCCNC(=N)N)C(=O)N[C@H](C)C(=O)N[C@H](CCCNC(=N)N)C(N)=O", "note": "[etelcalcetide]", "values": [
      {"measurement": "rate of conversion from SAPC to etelcalcetide relative to conversion of etelcalcetide to SAPC", "setting": "faster", "value": "roughly 16 fold"},
      {"measurement": "rate of conversion from SAPC to etelcalcetide relative to dialytic rate constant", "setting": "slower", "value": "approximately 200 fold"},
      {"measurement": "etelcalcetide dose cleared by HD", "setting": "within 15 minutes, almost all cleared as intact etelcalcetide", "value": "approximately 70%"},
      {"measurement": "terminal half-life", "setting": "[2]", "value": "around 20 hours"},
      {"measurement": "patients with at least one corrected calcium value below 8.3 mg/dl", "setting": "[3]", "value": 79, "unit": "%"},
      {"measurement": "patients with at least one corrected serum calcium value below 7 mg/dl", "setting": "[3]", "value": "around 7.6%"},
      {"measurement": "highest changes in Ca concentration", "setting": "[4]; HD patients, after a 60 mg administration", "value": "around 15%"},
      {"measurement": "time to decline of iCa concentration", "setting": "[4]; HD patients, after administration, dose-dependent", "value": "≤ 10", "unit": "h"},
      {"measurement": "time to lowering of intact PTH (iPTH)", "setting": "[4]; after a single dose", "value": "≤ 30", "unit": "min"},
      {"measurement": "time to iCa plateau", "setting": "[4]; after a single dose administration", "value": 56, "unit": "h"},
      {"measurement": "iCa decline before reaching a plateau", "setting": "[4]; [6]", "value": "around 10%"},
      {"measurement": "phosphate decline before reaching a plateau", "setting": "[4]; [6]", "value": "~5", "unit": "%"},
      {"measurement": "time to plateau in iPTH", "setting": "[4]; post single dose administration", "value": 1, "unit": "h"},
      {"measurement": "time to decrease in phosphate", "setting": "[4]; post-administration", "value": "about 4 hours"},
      {"measurement": "time after which iCa gradually decreases", "setting": "[4]; single dose", "value": "about 18 hours"},
      {"measurement": "time phosphate remains low", "setting": "[4]; single dose", "value": "about 4 days"},
      {"measurement": "time serum ionized Ca (iCa) remains stable", "setting": "[4]; single dose", "value": 8, "unit": "h"},
      {"measurement": "time to steady state of etelcalcetide plasma concentration", "setting": "[5]; clinical studies, multiple 2.5 mg or 5 mg administrations after every HD session", "value": "about 4 weeks"},
      {"measurement": "biotransformation resulting in (reversible) formation of SAPC", "setting": "[5]; human, in vivo", "value": "roughly 60%"},
      {"measurement": "etelcalcetide undergoing biotransformation", "setting": "[5]; human, in vivo", "value": "approximately 90%"},
      {"measurement": "half-life", "setting": "[5]; patients on intermittent HD", "value": "~50", "unit": "days"}
    ]}
  ]
}
